Measured values reported in ChEMBL document CHEMBL1201862, “PubChem BioAssay data set” (2004).
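Values below derive from 48-hour exposures of cells grown in 96-well plates, with endpoints linearly interpolated between the two concentrations bracketing the appropriate inhibition level. Abbreviation: GI50, concentration required for 50% inhibition of growth.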 The source made the active and inactive calls. No stated cut-off is given here; in the data, active = GI50 up to about 1.1 µM and inactive = higher.

Assays:
Experiment in all cases: growth of human tumour cells (NCI), 48 h
[1] = test system: RPMI-8226
[2] = test system: SK-MEL-5
[3] = test system: SN12C
[4] = test system: SF-539
[5] = test system: SW-620
[6] = test system: HL-60
[7] = test system: MOLT-4
[8] = test system: SK-MEL-28
[9] = test system: A498
[10] = test system: M14
[11] = test system: SR
[12] = test system: OVCAR-3
[13] = test system: UACC-257
[14] = test system: NCI-H23
[15] = test system: HCC 2998
[16] = test system: HCT-15
[17] = test system: OVCAR-4
[18] = test system: ACHN
[19] = test system: K562

## OCCNCCN1CCN(CCCN2c3ccccc3Sc3ccc(C(F)(F)F)cc32)CC1
[1]
  GI50: > 100 µM (inactive)
[2]
  GI50: > 100 µM (inactive)
[3]
  GI50: 18.2 µM (inactive)
[4]
  GI50: 20.2 µM (inactive)
[5]
  GI50: 19.2 µM (inactive)
[6]
  GI50: > 100 µM (inactive)
[7]
  GI50: > 100 µM (inactive)
[8]
  GI50: 23.6 µM (inactive)
[9]
  GI50: > 100 µM (inactive)
[10]
  GI50: 15.3 µM (inactive)
[11]
  GI50: > 100 µM (inactive)
[12]
  GI50: 22.7 µM (inactive)
[13]
  GI50: 20.3 µM (inactive)
[14]
  GI50: 27.2 µM (inactive)
[15]
  GI50: 27.4 µM (inactive)
[16]
  GI50: 19.7 µM
[17]
  GI50: 25.8 µM (inactive)
[18]
  GI50: 24.9 µM (inactive)

## CN(N=O)N1C(=O)SCC(c2ccccc2)(c2ccccc2)C1=O
[1]
  GI50: 25.8 µM (inactive)
[2]
  GI50: 37.8 µM (inactive)
[3]
  GI50: 31.6 µM (inactive)
[19]
  GI50: 65.2 µM (inactive)
[4]
  GI50: 21.9 µM (inactive)
[5]
  GI50: 38.7 µM (inactive)
[6]
  GI50: 46.1 µM (inactive)
[7]
  GI50: 61.8 µM (inactive)
[8]
  GI50: 36.8 µM (inactive)
[9]
  GI50: > 100 µM (inactive)
[10]
  GI50: 37.5 µM (inactive)
[11]
  GI50: 37.5 µM (inactive)
[12]
  GI50: 37.6 µM (inactive)
[13]
  GI50: 64.3 µM (inactive)
[14]
  GI50: > 100 µM (inactive)
[15]
  GI50: 89.1 µM (inactive)
[16]
  GI50: 41.7 µM
[18]
  GI50: 37.2 µM (inactive)

## Cc1nn(C(=O)Cc2ccccc2)c2c1C(c1ccc(O)cc1O)SC(=N)N2 (stereo not drawn)
[1]
  GI50: > 100 µM (inactive)
[2]
  GI50: > 100 µM (inactive)
[3]
  GI50: > 100 µM (inactive)
[4]
  GI50: > 100 µM (inactive)
[5]
  GI50: > 100 µM (inactive)
[6]
  GI50: > 100 µM (inactive)
[7]
  GI50: > 100 µM (inactive)
[8]
  GI50: > 100 µM (inactive)
[9]
  GI50: > 100 µM (inactive)
[10]
  GI50: > 100 µM (inactive)
[11]
  GI50: > 100 µM (inactive)
[13]
  GI50: > 100 µM (inactive)
[14]
  GI50: > 100 µM (inactive)
[15]
  GI50: > 100 µM (inactive)
[16]
  GI50: > 100 µM
[18]
  GI50: > 100 µM (inactive)

## Cc1cccc(-c2nc3ccc([N+](=O)[O-])cc3c(=O)o2)c1
[1]
  GI50: 45.6 µM (inactive)
[2]
  GI50: > 100 µM (inactive)
[3]
  GI50: 72.3 µM (inactive)
[19]
  GI50: 35.3 µM (inactive)
[4]
  GI50: 27.9 µM (inactive)
[5]
  GI50: 73.3 µM (inactive)
[6]
  GI50: 59.7 µM (inactive)
[7]
  GI50: 27.6 µM (inactive)
[8]
  GI50: > 100 µM (inactive)
[9]
  GI50: 28.6 µM (inactive)
[11]
  GI50: 28.8 µM (inactive)
[12]
  GI50: 47.9 µM (inactive)
[13]
  GI50: 64.3 µM (inactive)
[14]
  GI50: 72.8 µM (inactive)
[15]
  GI50: > 100 µM (inactive)
[16]
  GI50: 74.3 µM
[17]
  GI50: 68.9 µM (inactive)
[18]
  GI50: 83.8 µM (inactive)

## CC(C)(C)OC(=O)N[C@H]1CCN(C2CCCCC2)C1=O
[1]
  GI50: > 100 µM (inactive)
[2]
  GI50: > 100 µM (inactive)
[3]
  GI50: > 100 µM (inactive)
[19]
  GI50: > 100 µM (inactive)
[4]
  GI50: > 100 µM (inactive)
[5]
  GI50: > 100 µM (inactive)
[6]
  GI50: > 100 µM (inactive)
[7]
  GI50: > 100 µM (inactive)
[8]
  GI50: > 100 µM (inactive)
[9]
  GI50: > 100 µM (inactive)
[10]
  GI50: > 100 µM (inactive)
[11]
  GI50: > 10 µM (inactive)
[14]
  GI50: > 100 µM (inactive)
[15]
  GI50: > 100 µM (inactive)
[16]
  GI50: > 100 µM
[18]
  GI50: > 100 µM (inactive)

## CCCCCCCCOC1C(O)C(O)C(O)C(O)C12CO2 (stereo not drawn)
[1]
  GI50: 50.2 µM (inactive)
[2]
  GI50: > 10 µM (inactive)
[3]
  GI50: 51.2 µM (inactive)
[19]
  GI50: 38.5 µM (inactive)
[4]
  GI50: > 100 µM (inactive)
[5]
  GI50: 45.4 µM (inactive)
[6]
  GI50: 42 µM (inactive)
[7]
  GI50: 38.9 µM (inactive)
[8]
  GI50: > 100 µM (inactive)
[9]
  GI50: > 100 µM (inactive)
[11]
  GI50: 48.4 µM (inactive)
[12]
  GI50: 50.4 µM (inactive)
[13]
  GI50: > 100 µM (inactive)
[14]
  GI50: 16.1 µM (inactive)
[15]
  GI50: 68.5 µM (inactive)
[16]
  GI50: 50.4 µM
[18]
  GI50: 53.8 µM (inactive)
